Assay results published in PMC8620390, “New Multi-Targeted Antiproliferative Agents: Design and Synthesis of IC261-Based Oxindoles as Potential Tubulin, CK1 and EGFR Inhibitors” (Pharmaceuticals, 2021).
Several values for one entry are separate records, joined by “and”; a condition that tells them apart may be missing. Identical values can stand only once. Marks after values point to notes of the source that are not given here.

Legend:
Pgp = Pgp ELISA assay in MCF-7 cells; format: in vitro ADME, human
Experimental: PgP concentration was measured using ELISA kit Cat No: MBS722065) for human PgP assay. The Pgp ELISA kit employs a competitive enzyme immunoassay technique using a polyclonal anti-Pgp antibody and a PgpHRP conjugate. The test sample and buffer were incubated together with the PgpHRP conjugate on a precoated plate for one hour. After the incubation period, the wells were decanted and washed five times. The wells were then incubated with a substrate for the HRP enzyme. The enzyme-substrate reaction product formed a blue complex. Finally, a stop solution was added to stop the reaction, which then turned the solution yellow. Color intensity was measured spectrophotometrically at 450 nm in a microplate reader. The intensity of the color was inversely proportional to the Pgp concentration, since the Pgp of the samples and the PgpHRP conjugate competed for the binding site of the anti-Pgp antibody. Because the number of sites is limited, there were fewer sites left to bind to the PgpHRP conjugate as the sample Pgp occupies more sites. A standard curve was drawn that relates the intensity of the color to the concentration of the standards. The Pgp concentration in each sample was interpolated from this standard curve.

Bcl-2 = Bcl-2 expression level in COLO-205 (qRT-PCR); format: cell-based, human
Experimental: (§1) qRT-PCR was used to assess the […] expression of Bax and Bcl-2. The High Pure RNA Isolation Kit (RNeasy extraction kit, up to 1 × 10^7 cells) was used to isolate total RNA from COLO-205 cells according to the manufacturer's instructions. A Transcriptor First Strand c-DNA Synthesis Kit was used to produce c-DNA from RNA according to the manufacturer's instructions; 10 μL total RNA was used for amplification Specific primers for Bax, Bcl-2, and P53 were used in PCR experiments. A LightCycler 480 PCR Master Mix was used to set up amplification reactions with a reaction volume of 20 uL. TaqMan probes and PCR primers were created and tuned. PCR Primer sequences were as following (Bax [NT], Bax [NT]. Bcl-2 [NT], and Bcl-2 […] dissociation assay was performed to evaluate any problem related to primer unspecific annealing or any secondary structure formation. Data were analyzed using SDS analysis software.

Bax = Bax expression level in COLO-205 (qRT-PCR); format: cell-based, human; settings: COLO-205, 4b 2.34 μM, vs DMSO-treated control
Experimental: as §1

COLO-205 = assay: Cell cycle analysis, DNA flow cytometry (PI); format: cell-based, human
Experimental: COLO-205 Cells were placed in a 6-well plate at 1 × 10^5 concentration of cells/well then incubated for 24 h. COLO-205 Cells were treated with compound 4b (2.34 μM) for 24 h. Cells were then collected and fixed for 12 h using ice cold 70% ethanol at 4 °C. Ethanol was then removed and cells were washed with cold phosphate buffer saline (PBS, 0.5 mL) and incubated for 30 min at 37 °C. The cells were stained for 30 min with propidium iodide in the dark. A flow cytometer was used to detect DNA content.

`COc1cc(OC)c(/C=C2/C(=O)Nc3cc(Cl)ccc32)c(OC)c1` [Compound 4b, (E)-6-chloro-3-(2,4,6-trimethoxybenzylidene)indolin-2-one] was tested, and the “Pgp occupied by compound” value (Pgp) was “around 35%”, the “Bcl-2 level, fold change” value (Bcl-2; COLO-205, 4b 2.34 μM, vs control) was 0.242 fold and 0.24 fold and the “Bcl-2 protein level down-regulation, fold lower than untreated cells” value (Bcl-2; COLO-205, vs untreated COLO cells) was 4.16 fold. For the same compound, the “Bax expression level, fold change” value (Bax) was 5.104 fold and 5.10 fold, the “DNA content %G0-G1” value (COLO-205; COLO-205, 4b 2.34 μM, 24 h) was 47.15% and the “DNA content %G2/M” value (COLO-205; COLO-205, 4b 2.34 μM, 24 h) was 2.94 * %. The “DNA content %Pre-G1” value (COLO-205; COLO-205, 4b 2.34 μM, 24 h) was 41.28% and 41.28 * %, the “DNA content %S” value (COLO-205; COLO-205, 4b 2.34 μM, 24 h) was 49.91% and the “increase in cells at pre-G1 phase, fold” value (COLO-205; COLO-205, vs untreated control) was 16.99 fold.
